Data taken from publication PMC6271477, “Effects of Single Amino Acid Substitution on the Biophysical Properties and Biological Activities of an Amphipathic α-Helical Antibacterial Peptide Against Gram-Negative Bacteria” (Molecules, 2014).

Experiments:
[1] = Tryptophan fluorescence in HEPES buffer; type: physicochemical; conditions: peptide 2 μM, excitation 280 nm
From the text: Upon peptide diffusion into the cytoplasmic membrane, evidence of selective interaction between peptides with bacterial versus mammalian cytoplasmic membrane was illustrated by the binding events of the peptides to anionic or zwitterionic lipid vesicles. The repositioning of the tryptophan indole group in an environment of reduced polarity upon membrane binding results in a blue shift in the fluorescence […] maximum coupled with an enhancement of emission intensity. Lipid/peptide (L/P) ratios were maintained high enough at low peptide concentration (2 μM) in order to mimic the initial steps of peptide-membrane binding. The spectra were recorded as shown in Supplementary Figure S1. […] The significant blue shifts of Δλmax (17 to 23 nm) for all peptides upon exposure to PC/PG vesicles indicated a membrane partition state of Trp in negatively charged vesicles containing 30% anionic lipids (PG).
Fluorescence emission spectra of peptide Trp residues were monitored by a Shimadzu RF-5301 spectrofluorometer. The excitation of wavelength was set as 280 nm and the emission spectra of each peptide, with or without lipid vesicles, were recorded between 300 and 450 nm. Thus three curves were recorded for each peptide, in HEPES buffer or with either PC/PG vesicles or PC/cholesterol vesicles. The blue shift of Trp residues in vesicles were referred to in buffer condition. The final concentrations of peptide and lipid were 2 μM and 100 μM (1/50), respectively.

human red blood cells = experiment: Hemolytic activity; type: cell-based; conditions: peptide 1,000 μg/mL, 1% human erythrocytes in PBS, 37 °C for 4 h, absorbance at 540 nm, 100% = distilled water
Experimental: Peptide samples were serially diluted using phosphate-buffered saline (PBS) in 96-well plates (round-bottom) to give a volume of 60 μL of the sample solution in each well. Human erythrocytes that had been anticoagulated using EDTAK2 were collected by centrifugation (1,000 ×g) for 5 min, washed twice with PBS, then diluted to a concentration of 2% in PBS. The erythrocytes (60 μL of 2% solution) were added to each well to achieve a final concentration of 1% human erythrocytes per well, and the reactions were incubated at 37 °C for 4 h. The plates were then centrifuged for 10 min at 3000 rpm and the supernatant (80 μL) was transferred to a 96-well plate (flat-bottom). The release of hemoglobin was determined by measuring the absorbance of the supernatant at 540 nm. Peptide samples were diluted in a 2-fold series to determine the minimum concentration at which hemolysis occurred. Erythrocytes in PBS and distilled water were used as controls of 0% and 100% hemolysis, respectively. Hemolysis percentage was calculated by the absorbance of peptide at the concentration of 1,000 μg/mL and compared with the 100% hemolysis.

[2] = Dansyl-polymyxin B displacement assay (LPS binding affinity); design: species or system E. coli; conditions: LPS 3 μg/mL in 5 mM HEPES pH 7.2, 25 °C, fluorescence; result in words, Figure 5
Experimental: As most of the outer membrane is LPS, the affinity of peptide analogs to LPS of E. coli was further detected by dansyl-polymyxin B displacement assay. As it is the polar face of the molecule that binds LPS, and all the peptides V16A, V16S, V16G and P have the same number of positively charged residues on the polar face, they would be expected to have similar effects on LPS affinity (Figure 5).
Dansyl-polymyxin B was synthesized, purified and quantified as reported. It was then dissolved in HEPES buffer (5 mM, pH 7.2) at the concentration of 100 μM and the final concentration of LPS is 3 μg/mL in the same buffer. Fluorescence measurements were run on a Shimadzu RF-5301 spectrofluorometer using a 3 mL quartz cuvette with an excitation wavelength of 350 nm and an emission wavelength of 420 nm at 25 °C. For displacement assay, 15 μL of peptide solution (10 mg/mL) was titrated into the cuvette containing 2 mL LPS and 0.25 mL dansyl-polymyxin B, and the decrease in the observed fluorescence (percent inhibition) was recorded.

CC[C@H](C)[C@H](NC(=O)[C@H](C)NC(=O)[C@H](CCCCN)NC(=O)[C@H](CC(C)C)NC(=O)[C@H](C)NC(=O)[C@@H](NC(=O)[C@H](Cc1cnc[nH]1)NC(=O)[C@H](CC(C)C)NC(=O)[C@@H](NC(=O)[C@@H](NC(=O)[C@H](CCCCN)NC(=O)[C@H](CCCCN)NC(=O)[C@H](C)NC(=O)[C@H](CO)NC(=O)[C@H](CCCCN)NC(=O)[C@H](Cc1ccccc1)NC(=O)[C@@H](NC(=O)[C@H](CCCCN)NC(=O)[C@H](CC(C)C)NC(=O)[C@H](Cc1ccccc1)NC(=O)[C@H](CO)NC(=O)[C@H](CCCCN)NC(=O)[C@H](Cc1c[nH]c2ccccc12)NC(=O)[C@H](CCCCN)NC(C)=O)[C@@H](C)O)[C@@H](C)O)C(C)C)[C@@H](C)O)C(=O)N[C@@H](CO)C(=O)N[C@@H](CO)C(N)=O [P]
Tryptophan fluorescence emission maximum [1]: 350 nm | Hemolysis Percentage (human red blood cells): 28.3%

Ac-KWKSFLKTFKSAKKTKLHTALKAISS-NH2 [Peptide V16K]
Affinity to LPS (inhibition of dansyl-polymyxin B binding) [2]: more affinity than the Ser- or Gly-substituted peptides | Tryptophan fluorescence emission maximum [1]: 350 nm
